{"source": "patent EP0647645A1", "about": "“Novel antitumoral and antiviral compound” (PHARMA MAR, S.A., priority 1993, dated 1995)", "key": {"P-388 cells": {"test_system": "P-388 cells", "test": "antitumoral assay, P-388 cell growth inhibition (cell counting)", "format": "cell-based, DBA/2 mouse", "settings": "three days of incubation", "procedure": "(§1) Pateamine was diluted in MeOH/CH₂Cl₂ 1:1 at 100 ng/ml and it has been tested at different concentrations. The solvent was added to evaporate before the cells were seeded.\n(§2) Four general antitumoral assays, employing the currently accepted screening protocols have been carried out using the following cells: P-388 (lymphoid neoplasm from DBA/2 mouse) A-549 (human lung carcinoma) HT-29 (human colon carcinoma) KB (human oral epidermoid carcinoma)\nP-388 cells were seeded into 16 mm wells at 1 x 10⁴ per well in 1 ml aliquots of MEM 10FCS containing the indicated concentration or drug. All determinations were carried out in duplicate. After three days of incubation cells were counted and the IC₅₀ was determined. DATA TABLE-I"}, "BHK cells [1]": {"test_system": "BHK cells", "test": "cytotoxicity assay, BHK cell growth inhibition (cell counting)", "format": "cell-based, hamster", "settings": "three days of incubation", "procedure": "as §1\n(§3) Two types of cytotoxicity assays were conducted, one of them employing conventional screening protocols and the other using the MTT method. In both cases the cells were: CV-1 (monkey kidney fibroblast) BHK (hamster kidney fibroblast)\nBHK cells were seeded into 16 mm wells at 2 X 10⁴ per well. The day after the inoculum was replaced by 1 ml aliquots of MEM 10FCS containing the indicated concentration of drug. All determinations were carried out in duplicate. After three days of incubation cells were counted and the IC₅₀ was determined. DATA TABLE-VI"}, "CV-1 cells [2]": {"test_system": "CV-1 cells", "test": "cytotoxicity assay, MTT method, CV-1 cells", "format": "cell-based, monkey", "settings": "three days of incubation", "procedure": "as §3\n(§4) CV-1 and BHK cells were seeded into 9 mm wells at 1 x 10⁴ cells per well (logarithmic phase) and at 2 x 10⁵ cells per well (stationary phase). The day after the inoculum was replaced by […] aliquots of MEM 10FCS containing different concentrations of drug. All determinations were carried out in duplicate. After three days of incubation, 50 µl of medium containing 100 µg of MTT were added. Plates were incubated for two hours, medium was removed and 100 µl of isopropanol were added. The absorbencies were determined with a microtiter reader. DATA TABLE-VII"}, "CV-1 cells [3]": {"test_system": "CV-1 cells", "test": "cytotoxicity in antiviral assay, inhibition zone on the CV-1 cell sheet", "settings": "CV-1/HSV-1"}, "[4]": {"test_system": "HSV-1 (herpes simplex virus, type 1)", "test": "antiviral assay, plaque reduction, HSV-1 in CV-1 cells", "format": "cell-based"}, "BHK cells [5]": {"test_system": "BHK cells", "test": "cytotoxicity assay, MTT method, BHK cells", "format": "cell-based, hamster", "settings": "three days of incubation", "procedure": "as §3, §4"}, "Balb/c lymphocytes": {"test_system": "Balb/c lymphocytes", "format": "cell-based, mice"}, "HT-29 cells": {"test_system": "HT-29 cells", "test": "antitumoral assay, HT-29 cell growth inhibition (cell counting)", "format": "cell-based, human", "settings": "four days of incubation", "procedure": "as §1, §2\nHT-29 cells were seeded into 16 mm wells at 4 x 10⁴ per well. The day after the inoculum was replaced by 1 ml aliquots of MEM 10FCS containing the indicated concentration of drug. All determinations were carried out in duplicate. After four days of incubation cells were counted and the IC₅₀ was determined. DATA TABLE-III"}, "P388 cell line": {"test_system": "P388 cell line", "test": "P388 assay of fractions during isolation", "format": "cell-based", "settings": "isolation fractions and free base form", "procedure": "The sponge N.sp2 was extracted with methanol and a 3:1 mixture of methanol dichloromethane. An aqueous suspension of the entire 1 Kg extract of Mycale was extracted with three equivalent volumes of chloroform which was in turn back-extracted with distilled water. The organic extract (7.5 g) was loaded onto a C₁₈ flash column (200 g freshly prepared). Elution was started with 50% water/methanol, the methanol content was increased in steps to 100%, and then dichloromethane was added in gradual increments to 50%. Sixteen fractions were collected, weighed and assayed. Good total recovery of mass and activity was obtained with most of the activity confined to one fraction. […] A gradient solvent system was used (CH₂Cl₂, EtOAc, MeOH) and the fractions were monitored by TLC. Much of the fatty acids and pigments were eluted with the mixtures of CH₂Cl₂ and EtOAc, while a yellow charring (H₂SO₄ on silica) material came off in 5 - 20% MeOH in EtOAc. The fractions containing the yellow char were combined to yield a mass of 240 mg. […] This fraction was further purified using amino cartridges (500 mg). The activity was eluted with MeOH to yield 45 mg of material (IC₅₀ 0.5 ng/ml P388). Final purifications was obtained on a LH20 column using the eluting solvent system 9:1 MeOH/CH₂Cl₂ with 2% concentrated aqueous ammonia. This was selected to keep the active component in a free base form. […]"}, "A-549 cells": {"test_system": "A-549 cells", "test": "antitumoral assay, A-549 cell growth inhibition (cell counting)", "format": "cell-based, human", "settings": "three days of incubation", "procedure": "as §1, §2\nA-549 cells were seeded into 16 mm wells at 2 x 10⁴ per well. The day after the inoculum was replaced by 1 ml aliquots of MEM 10FCS containing the indicated concentration of drug. All determination were carried out in duplicate. After three days of incubation cells were counted and the IC₅₀ was determined. DATA TABLE-II"}, "KB cells": {"test_system": "KB cells", "test": "antitumoral assay, KB cell growth inhibition (cell counting)", "format": "cell-based, human", "settings": "four days of incubation", "procedure": "as §1, §2\nKB cells were seeded into 16 mm wells at 2 X 10⁴ cells per well. The day after the inoculum was replaced by 1 ml aliquots of MEM 10FCS containing the indicated concentration of drug. All determinations were carried out in duplicate. After four days of incubation cells were counted and the IC₅₀ was determined. DATA TABLE-IV"}, "[6]": {"test_system": "VSV (vesicular stomatitis virus)", "format": "cell-based"}, "CV-1 cells [7]": {"test_system": "CV-1 cells", "test": "cytotoxicity assay, CV-1 cell growth inhibition (cell counting)", "format": "cell-based, monkey", "settings": "four days of incubation", "procedure": "as §1, §3\nCV-1 cells were seeded into 16 mm wells at 2 x 10⁴ per well. The day after the inoculum was replaced by 1 ml aliquots of MEM 10FCS containing the indicated concentration of drug. All determinations were carried out in duplicate. After four days of incubation cells were counted and the IC₅₀ was determined. DATA TABLE-V"}}, "data": [{"substance": "pateamine", "values": [{"measurement": "% Inhibition P-388 cell growth", "setting": "P-388 cells; 0.1ng", "value": 11, "unit": "%"}, {"measurement": "% Inhibition P-388 cell growth", "setting": "P-388 cells; 0.5ng", "value": 0, "unit": "%"}, {"measurement": "% Inhibition P-388 cell growth", "setting": "P-388 cells; 1ng", "value": 100, "unit": "%"}, {"measurement": "% Inhibition P-388 cell growth", "setting": "P-388 cells; 5ng", "value": 100, "unit": "%"}, {"measurement": "% Inhibition P-388 cell growth", "setting": "P-388 cells; 10ng", "value": 100, "unit": "%"}, {"measurement": "IC₅₀ ng/ml approx.", "setting": "P-388 cells; P-388 cell growth", "value": "~0.3", "unit": "ng/mL"}, {"measurement": "% Inhibition BHK cell growth", "setting": "BHK cells [1]; 0.1ng", "value": 0, "unit": "%"}, {"measurement": "% Inhibition BHK cell growth", "setting": "BHK cells [1]; 0.5ng", "value": 0, "unit": "%"}, {"measurement": "% Inhibition BHK cell growth", "setting": "BHK cells [1]; 1ng", "value": 0, "unit": "%"}, {"measurement": "% Inhibition BHK cell growth", "setting": "BHK cells [1]; 5ng", "value": 98, "unit": "%"}, {"measurement": "% Inhibition BHK cell growth", "setting": "BHK cells [1]; 10ng", "value": 100, "unit": "%"}, {"measurement": "IC₅₀ ng/ml approx.", "setting": "BHK cells [1]; BHK cell growth", "value": "~3", "unit": "ng/mL"}, {"measurement": "IC₅₀", "setting": "CV-1 cells [2]; log. phase", "value": 2.4, "unit": "ng/mL"}, {"measurement": "IC₅₀", "setting": "CV-1 cells [2]; stat. phase", "value": ">100", "unit": "ng/mL"}, {"measurement": "cytotoxicity for the cells, inhibition zone on the cell sheet", "setting": "CV-1 cells [3]; 10ng", "value": 6}, {"measurement": "cytotoxicity for the cells, inhibition zone on the cell sheet", "setting": "CV-1 cells [3]; 20ng", "value": 10}, {"measurement": "cytotoxicity for the cells, inhibition zone on the cell sheet", "setting": "CV-1 cells [3]; 40ng", "value": 12}, {"measurement": "cytotoxicity for the cells, inhibition zone on the cell sheet", "setting": "CV-1 cells [3]; 100ng", "value": 14}, {"measurement": "cytotoxicity for the cells, inhibition zone on the cell sheet", "setting": "CV-1 cells [3]; 200ng", "value": 16}, {"measurement": "cytotoxicity for the cells, inhibition zone on the cell sheet", "setting": "CV-1 cells [3]; 400ng", "value": 16}, {"measurement": "% Inhibition CV-1/HSV-1 (plaque reduction sign)", "setting": "[4]; 20ng", "value": "+ (The sign (+), indicates that plaques are reduced by approx. 50-60%.)"}, {"measurement": "% Inhibition CV-1/HSV-1 (plaque reduction sign)", "setting": "[4]; 40ng", "value": "++ (The sign (+ +), indicates that plaques are reduced by approx. 70-90%.)"}, {"measurement": "% Inhibition CV-1/HSV-1 (plaque reduction sign)", "setting": "[4]; 100ng", "value": "+++ (The sign (+ + +), indicates that plaques are reduced 100%.)"}, {"measurement": "% Inhibition CV-1/HSV-1 (plaque reduction sign)", "setting": "[4]; 200ng", "value": "+++ (The sign (+ + +), indicates that plaques are reduced 100%.)"}, {"measurement": "% Inhibition CV-1/HSV-1 (plaque reduction sign)", "setting": "[4]; 400ng", "value": "+++ (The sign (+ + +), indicates that plaques are reduced 100%.)"}, {"measurement": "IC₅₀ ng/disk", "setting": "[4]; CV-1/HSV-1, ( + ) is the approximately IC₅₀", "value": 20, "unit": "ng/disk"}, {"measurement": "IC₅₀", "setting": "BHK cells [5]; log. phase", "value": 3.7, "unit": "ng/mL"}, {"measurement": "IC₅₀", "setting": "BHK cells [5]; stat. phase", "value": ">100", "unit": "ng/mL"}, {"measurement": "IC₅₀ for the LcV", "setting": "Balb/c lymphocytes", "value": 4.1, "unit": "µg/mL"}, {"measurement": "% Inhibition HT-29 cell growth", "setting": "HT-29 cells; 0.1ng", "value": 0, "unit": "%"}, {"measurement": "% Inhibition HT-29 cell growth", "setting": "HT-29 cells; 0.5ng", "value": 0, "unit": "%"}, {"measurement": "% Inhibition HT-29 cell growth", "setting": "HT-29 cells; 1ng", "value": 35, "unit": "%"}, {"measurement": "% Inhibition HT-29 cell growth", "setting": "HT-29 cells; 5ng", "value": 85, "unit": "%"}, {"measurement": "% Inhibition HT-29 cell growth", "setting": "HT-29 cells; 10ng", "value": 91, "unit": "%"}, {"measurement": "IC₅₀ ng/ml approx.", "setting": "HT-29 cells; HT-29 cell growth", "value": "~2", "unit": "ng/mL"}, {"measurement": "IC₅₀", "setting": "P388 cell line", "value": 0.15, "unit": "ng/mL"}, {"measurement": "% Inhibition A-549 cell growth", "setting": "A-549 cells; 0.1ng", "value": 0, "unit": "%"}, {"measurement": "% Inhibition A-549 cell growth", "setting": "A-549 cells; 0.5ng", "value": 0, "unit": "%"}, {"measurement": "% Inhibition A-549 cell growth", "setting": "A-549 cells; 1ng", "value": 71, "unit": "%"}, {"measurement": "% Inhibition A-549 cell growth", "setting": "A-549 cells; 5ng", "value": 100, "unit": "%"}, {"measurement": "% Inhibition A-549 cell growth", "setting": "A-549 cells; 10ng", "value": 100, "unit": "%"}, {"measurement": "IC₅₀ ng/ml approx.", "setting": "A-549 cells; A-549 cell growth", "value": "~0.7", "unit": "ng/mL"}, {"measurement": "% Inhibition KB cell growth", "setting": "KB cells; 0.1ng", "value": 70, "unit": "%"}, {"measurement": "% Inhibition KB cell growth", "setting": "KB cells; 0.5ng", "value": 67, "unit": "%"}, {"measurement": "% Inhibition KB cell growth", "setting": "KB cells; 1ng", "value": 96, "unit": "%"}, {"measurement": "% Inhibition KB cell growth", "setting": "KB cells; 5ng", "value": 100, "unit": "%"}, {"measurement": "% Inhibition KB cell growth", "setting": "KB cells; 10ng", "value": 100, "unit": "%"}, {"measurement": "IC₅₀ ng/ml approx.", "setting": "KB cells; KB cell growth", "value": "<0.05", "unit": "ng/mL"}, {"measurement": "IC₅₀ ng/disk", "setting": "[6]", "value": ">20", "unit": "ng/disk"}, {"measurement": "% Inhibition CV-1 cell growth", "setting": "CV-1 cells [7]; 0.1ng", "value": 0, "unit": "%"}, {"measurement": "% Inhibition CV-1 cell growth", "setting": "CV-1 cells [7]; 0.5ng", "value": 0, "unit": "%"}, {"measurement": "% Inhibition CV-1 cell growth", "setting": "CV-1 cells [7]; 1ng", "value": 31, "unit": "%"}, {"measurement": "% Inhibition CV-1 cell growth", "setting": "CV-1 cells [7]; 5ng", "value": 84, "unit": "%"}, {"measurement": "% Inhibition CV-1 cell growth", "setting": "CV-1 cells [7]; 10ng", "value": 100, "unit": "%"}, {"measurement": "IC₅₀ ng/ml approx.", "setting": "CV-1 cells [7]; CV-1 cell growth", "value": "~2.4", "unit": "ng/mL"}]}]}
